Here are results for 14 compounds from patent US20050124562A1, “Bis-quinazoline compounds for the treatment of bacterial infections” (priority 2003, published 2005).

In brackets after ≈: the same amount, converted by molar mass. Read-outs that look alike come from different tables or passages of the source.

Type in all cases: cell-based
One assay concerns M. catarrhalis. As to the kind of experiment: Broth microdilution MIC (NCCLS), M. catarrhalis. Particulars: Moraxella catarrhalis, read-out: MIC range. In short, it runs like this: (§1)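 MICs by broth microdilution per NCCLS M-7 A-6 against ATCC strains, including ORSA and VRE; MBCs determined for selected organisms. Serum effect assessed by repeating MIC tests with human serum present.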
In general terms: Dilution methods test growth across graded concentrations, often in twofold steps.

In assay [1] the test system is efflux mutants of P. aeruginosa. The experiment in a line: Broth microdilution MIC (NCCLS), P. aeruginosa efflux mutants. Particulars: Pseudomonas aeruginosa, read-out: MICs. In short, it runs like this: as §1
For assay [2], the system named is S. aureus, E. faecalis, S. pyogenes and S. pneumoniae. The experiment in a line: Broth microdilution MIC (NCCLS), gram-positive strains. The method in brief: as §1
A further assay deals with H. influenzae. The experiment in a line: Broth microdilution MIC (NCCLS), H. influenzae. The following applies: Haemophilus influenzae; some strains of H. influenzae. The method in brief:
as §1

The test system of assay [3] is efflux mutants of E. coli. The experiment in a line: Broth microdilution MIC (NCCLS), E. coli efflux mutants. Particulars: Escherichia coli, read-out: MICs. The method in brief:
as §1

[4] abbreviates: range against some strains of S. aureus, E. faecalis, S. pyogenes and S. pneumoniae, read-out: MIC.

Turning to `COc1cc2nc(Nc3nc(O)c4cc(OCCN5CCCC5)ccc4n3)nc(C)c2cc1OC.O=C(O)C(F)(F)F` [Example 148, 2-(6,7-Dimethoxy-4-methyl-quinazolin-2-ylamino)-6-(2-pyrrolidin-1-yl-ethoxy)-quinazolin-4-ol trifluoroacetate salt], the MIC is 2 to 64 µg/mL in the assay on M. catarrhalis (some strains of M. catarrhalis); 64 µg/mL in assay [1]; 0.06 to 16 µg/mL in assay [2] (setting [4]); 16 to 32 µg/mL in the assay on H. influenzae; 16 to 64 µg/mL in assay [3].

In the case of `CCN(CC)CCOc1ccc2nc(Nc3nc(C)c4cc(OC)c(OC)cc4n3)nc(O)c2c1.O=C(O)C(F)(F)F` [Example 149, 6-(2-Diethylamino-ethoxy)-2-(6,7-dimethoxy-4-methyl-quinazolin-2-ylamino)-quinazolin-4-ol trifluoroacetate salt], the MIC with M. catarrhalis (some strains of M. catarrhalis) is 2 to 64 µg/mL; in assay [1] it was 64 µg/mL; in assay [2] (setting [4]), 0.06 to 16 µg/mL; in the assay with H. influenzae, 16 to 32 µg/mL; in assay [3] it was 16 to 64 µg/mL.

For the compound `COc1cc2nc(Nc3nc(O)c4cc(OCCCN5CCCC5)ccc4n3)nc(C)c2cc1OC.O=C(O)C(F)(F)F` [Example 151, 2-(6,7-Dimethoxy-4-methyl-quinazolin-2-ylamino)-6-(3-pyrrolidin-1-yl-propoxy)-quinazolin-4-ol trifluoroacetate salt], the MIC in the assay with M. catarrhalis (some strains of M. catarrhalis) was 2 to 64 µg/mL; in assay [1], 64 µg/mL; in assay [2] (setting [4]), 0.06 to 16 µg/mL; with H. influenzae, 16 to 32 µg/mL; in assay [3], 16 to 64 µg/mL.

For the compound `COc1cc2nc(Nc3nc(O)c4cc(OCCN5CCC(O)C5)ccc4n3)nc(C)c2cc1OC.O=C(O)C(F)(F)F` (stereo not shown) [Example 154, 2-(6,7-Dimethoxy-4-methyl-quinazolin-2-ylamino)-6-[2-(3-hydroxy-pyrrolidin-1-yl)-ethoxy]-quinazolin-4-ol trifluoroacetate salt], the MIC in the assay on M. catarrhalis (some strains of M. catarrhalis) was 2 to 64 µg/mL; in assay [1] it was 64 µg/mL; in assay [2] (setting [4]), 0.06 to 16 µg/mL; against H. influenzae, 16 to 32 µg/mL; in assay [3], 16 to 64 µg/mL.

Regarding `COc1cc2nc(Nc3nc(O)c4cc(OCCN5CCCC(O)C5)ccc4n3)nc(C)c2cc1OC.O=C(O)C(F)(F)F` (stereo not shown) [Example 157, 2-(6,7-Dimethoxy-4-methyl-quinazolin-2-ylamino)-6-[2-(3-hydroxy-piperidin-1-yl)-ethoxy]-quinazolin-4-ol trifluoroacetate salt], the MIC with M. catarrhalis (some strains of M. catarrhalis) was 2 to 64 µg/mL; in assay [1] it was 64 µg/mL; in assay [2] (setting [4]) it was 0.06 to 16 µg/mL; in the assay with H. influenzae it was 16 to 32 µg/mL; in assay [3], 16 to 64 µg/mL.

Take `COc1cc2nc(Nc3nc(O)c4cc(OCCN(CCO)CCO)ccc4n3)nc(C)c2cc1OC.O=C(O)C(F)(F)F` [Example 158, 6-{2-[Bis-(2-hydroxy-ethyl)-amino]-ethoxy}-2-(6,7-dimethoxy-4-methyl-quinazolin-2-ylamino)-quinazolin-4-ol trifluoroacetate salt]: the MIC is 2 to 64 µg/mL in the assay on M. catarrhalis (some strains of M. catarrhalis); 64 µg/mL in assay [1]; 0.06 to 16 µg/mL in assay [2] (setting [4]); 16 to 32 µg/mL in the assay on H. influenzae; 16 to 64 µg/mL in assay [3].

For the compound `CCN(CCO)CCOc1ccc2nc(Nc3nc(C)c4cc(OC)c(OC)cc4n3)nc(O)c2c1.O=C(O)C(F)(F)F` [Example 159, 2-(6,7-Dimethoxy-4-methyl-quinazolin-2-ylamino)-6-{2-[ethyl-(2-hydroxy-ethyl)-amino]-ethoxy}-quinazolin-4-ol trifluoroacetate salt], the MIC with M. catarrhalis (some strains of M. catarrhalis) was 2 to 64 µg/mL; in assay [1], 64 µg/mL; in assay [2] (setting [4]) it was 0.06 to 16 µg/mL; in the assay on H. influenzae, 16 to 32 µg/mL; in assay [3], 16 to 64 µg/mL.

Turning to `COc1cc(OC)c2nc(Nc3nc(O)c4cc(OCCN5CCC(O)C5)ccc4n3)nc(C)c2c1.O=C(O)C(F)(F)F` (stereo not shown) [Example 160, 2-(6,8-Dimethoxy-4-methyl-quinazolin-2-ylamino)-6-[2-(3-hydroxy-pyrrolidin-1-yl)-ethoxy]-quinazolin-4-ol trifluoroacetate salt], the MIC is 2 to 64 µg/mL in the assay on M. catarrhalis (some strains of M. catarrhalis); 64 µg/mL in assay [1]; 0.06 to 16 µg/mL in assay [2] (setting [4]); 16 to 32 µg/mL against H. influenzae; 16 to 64 µg/mL in assay [3].

Consider `COc1cc2nc(Nc3nc(O)c4cc(OCCNCCO)ccc4n3)nc(C)c2cc1OC.O=C(O)C(F)(F)F` [Example 161, 2-(6,7-Dimethoxy-4-methyl-quinazolin-2-ylamino)-6-[2-(2-hydroxy-ethylamino)-ethoxy]-quinazolin-4-ol trifluoroacetate salt], for which the MIC is 2 to 64 µg/mL in the assay on M. catarrhalis (some strains of M. catarrhalis); 64 µg/mL in assay [1]; 0.06 to 16 µg/mL in assay [2] (setting [4]); 16 to 32 µg/mL in the assay with H. influenzae; 16 to 64 µg/mL in assay [3].

For the compound `COc1cc2nc(Nc3nc(O)c4cc(OCCN5CCC(N)C5)ccc4n3)nc(C)c2cc1OC` (stereo not shown) [Example 163, 6-[2-(3-Amino-pyrrolidin-1-yl)-ethoxy]-2-(6,7-dimethoxy-4-methyl-quinazolin-2-ylamino)-quinazolin-4-ol], the MIC is 2 to 64 µg/mL (≈ 4.07 to 130 µM) in the assay with M. catarrhalis; 64 µg/mL (≈ 130 µM) in assay [1]; 0.06 to 16 µg/mL (≈ 0.122 to 32.5 µM) in assay [2]; 16 to 32 µg/mL (≈ 32.5 to 65.1 µM) against H. influenzae; 16 to 64 µg/mL (≈ 32.5 to 130 µM) in assay [3].

For `COc1cc2nc(Nc3nc(O)c4cc(OCCN5CCCC5CO)ccc4n3)nc(C)c2cc1OC.O=C(O)C(F)(F)F` (stereo not shown) [Example 164, 2-(6,7-Dimethoxy-4-methyl-quinazolin-2-ylamino)-6-[2-(2-hydroxymethyl-pyrrolidin-1-yl)-ethoxy]-quinazolin-4-ol trifluoroacetate salt], the MIC with M. catarrhalis (some strains of M. catarrhalis) is 2 to 64 µg/mL; in assay [1] it was 64 µg/mL; in assay [2] (setting [4]) it was 0.06 to 16 µg/mL; with H. influenzae it was 16 to 32 µg/mL; in assay [3], 16 to 64 µg/mL.

For `COc1cc2nc(Nc3nc(O)c4cc(OCCNC(CO)CO)ccc4n3)nc(C)c2cc1OC.O=C(O)C(F)(F)F` [Example 165, 2-{2[-2-(6,7-Dimethoxy-4-methyl-quinazolin-2-ylamino)-4-hydroxy-quinazolin-6-yloxy]-ethylamino}-propane-1,3-diol trifluoroacetate salt], the MIC in the assay on M. catarrhalis (some strains of M. catarrhalis) is 2 to 64 µg/mL; in assay [1], 64 µg/mL; in assay [2] (setting [4]) it was 0.06 to 16 µg/mL; against H. influenzae, 16 to 32 µg/mL; in assay [3], 16 to 64 µg/mL.

On to `COc1cc(OC)c2nc(Nc3nc(O)c4cc(OCCN5CCCC5)ccc4n3)nc(C)c2c1.O=C(O)C(F)(F)F` [Example 166, 2-(6,8-Dimethoxy-4-methyl-quinazolin-2-ylamino)-6-(2-pyrrolidin-1-yl-ethoxy)-quinazolin-4-ol trifluoroacetate salt], for which the MIC in the assay with M. catarrhalis (some strains of M. catarrhalis) is 2 to 64 µg/mL; in assay [1], 64 µg/mL; in assay [2] (setting [4]), 0.06 to 16 µg/mL; against H. influenzae, 16 to 32 µg/mL; in assay [3], 16 to 64 µg/mL.

Regarding `COc1cc2nc(Nc3nc(O)c4cc(OCCNC(C)CO)ccc4n3)nc(C)c2cc1OC.O=C(O)C(F)(F)F` (stereo not shown) [Example 169, 2-(6,7-Dimethoxy-4-methyl-quinazolin-2-ylamino)-6-[2-(2-hydroxy-1-methyl-ethylamino)-ethoxy]-quinazolin-4-ol trifluoroacetate salt], the MIC with M. catarrhalis (some strains of M. catarrhalis) was 2 to 64 µg/mL; in assay [1], 64 µg/mL; in assay [2] (setting [4]) it was 0.06 to 16 µg/mL; in the assay with H. influenzae it was 16 to 32 µg/mL; in assay [3] it was 16 to 64 µg/mL.
